Source: a compilation of properties of binary mixtures (doi:10.1016/j.molliq.2016.03.072)

Assay: xn = mol fraction of the nth substance listed
Conditions: 101 kPa

CN(C)C=O + CCCC[n+]1ccn(C)c1.F[P-](F)(F)(F)(F)F
x1 = 1
Conditions	viscosity [mPa·s]
303.15 K	0.83
313.15 K	0.74
323.15 K	0.66

CCCC[n+]1ccn(C)c1.F[P-](F)(F)(F)(F)F + CN(C)C=O
viscosity [mPa·s]
Conditions	x2 = 0	x2 = 0.3028	x2 = 0.4909	x2 = 0.6262	x2 = 0.7227	x2 = 0.7963	x2 = 0.8543	x2 = 0.9012	x2 = 0.9399	x2 = 0.9724
303.15 K	–	52.1	15.21	6.21	3.48	–	1.93	1.5	–	0.98
313.15 K	129.7	28.84	–	5.2	3.33	2.12	–	1.26	1.05	0.83
323.15 K	88.5	25.91	–	–	2.2	1.82	1.51	1.08	0.91	0.77
